From patent US11013235B2 (priority 2015, dated 2021)
Where two headings read alike, the source gives them in different places.

Tests used:
Assay type in all cases: in vivo
[1] = tested on: Meloidogyne incognita; test: Nematode control, nodules per plant: Meloidogyne incognita; settings: 1 μM foliar application every 5 days, evaluation 35 days after, control 34
Procedure, shortened: (§1)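 Read-out: nodule count per plant at final evaluation 35 days after start. Foliar spray of 1 μM compound (ethanol stock diluted in water) repeated every 5 days, ten plants per treatment.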

[2] = tested on: Rhizoctonia solani; test: Control of Rhizoctonia solani disease in tobacco (Rs-Nt); settings: 1 μM spraying every 24 hours for one week, water control 87
[3] = tested on: Botrytis cinerea; test: Control of Botrytis cinerea disease in Arabidopsis (Bc-At); settings: 1 μM spraying every 24 hours for one week, water control 8.7
Procedure, shortened: (§2)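 Post-inoculation foliar spray, 1 μM, q24h × 1 wk; n = 50 plants/treatment; water control. Endpoints: mortality rate (Nocardia), % symptomatic leaves (Alternaria), lesion diameter (Botrytis).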

[4] = tested on: Pratylenchus coffeae; test: Nematode control, nodules per plant: Pratylenchus coffeae; settings: 1 μM foliar application every 5 days, evaluation 35 days after, control 42
Procedure, shortened: as §1

[5] = tested on: Phytophthora parasitica; test: Control of Phytophthora parasitica disease in tobacco (Pp-Nt); settings: 1 μM spraying every 24 hours for one week, water control 91
[6] = tested on: Radopholus similis; test: Nematode control, nodules per plant: Radopholus similis; settings: 1 μM foliar application every 5 days, evaluation 35 days after, control 45
Procedure, shortened: as §1

[7] = tested on: Rhizoctonia solani; test: Control of Rhizoctonia solani disease in tomato (Rs-SI); settings: 1 μM spraying every 24 hours for one week, water control 96
[8] = tested on: Botrytis cinerea; test: Control of Botrytis cinerea disease in tomato (Bc-SI); settings: 1 μM spraying every 24 hours for one week, water control 7.4
Procedure, shortened: as §2

[9] = tested on: Botrytis cinerea; test: Control of Botrytis cinerea disease in tobacco (Bc-Nt); settings: 1 μM spraying every 24 hours for one week, water control 6.7
Procedure, shortened: as §2

[10] = tested on: Alternaria solani; test: Control of Alternaria solani disease in tomato (As-SI); settings: 1 μM spraying every 24 hours for one week, water control 68
Procedure, shortened: as §2

[11] = tested on: Nocardia sp; test: Control of Nocardia sp disease in tobacco (N-Nt); settings: 1 μM spraying every 24 hours for one week, water control 58
Procedure, shortened: as §2

[12] = tested on: Candidatus 'Liberibacter asiaticus'; settings: spraying every 15 days, 12 months after treatment, Citrus sinensis with HLB

SMILES	Mi: number of nodules per plant [1]	Rs-Nt: percentage of mortality [2]	Bc-At: mean of the diameter of the lesion [3]	Pc: number of nodules per plant [4]	Pp-Nt: percentage of mortality [5]	Rs: number of nodules per plant [6]	Rs-SI: percentage of mortality [7]	Bc-SI: mean of the diameter of the lesion [8]	Bc-Nt: mean of the diameter of the lesion [9]	As-SI: percentage of leaves with the disease symptoms [10]	N-Nt: percentage of mortality [11]	Titers of the bacterium ([12]; 0.001 μM)	Titers of the bacterium ([12]; 0.01 μM)	Titers of the bacterium ([12]; 1 μM)	Titers of the bacterium ([12]; 5 μM)	Titers of the bacterium ([12]; 10 μM)
Cc1c(CCC(=O)NCC(O)CO)c(=O)oc2cc3occ(C4CCCC4)c3cc12 (stereo not shown) [IK, 3-{6-cyclopentyl-4-methyl-2-oxo-2H-furo[3,2-g]chromen-3-yl}-N-(2,3-dihydroxypropyl)propanamide]	0	0%	2.4 mm	15	0%	0	2%	0.8 mm	1.5 mm	8%	1%	435 copies per reaction	0 copies per reaction	0 copies per reaction	45 copies per reaction	6521 copies per reaction
O=C(Cc1cc2c(oc1=O)C=CC1C(n3cccc3)=COC21)NCC(O)CO (stereo not shown) [IIG, N-(2,3-dihydroxypropyl)-2-[11-oxo-5-(1H-pyrrol-1-yl)-3,10-dioxatricyclo[7.4.0.0^{2,6}]trideca-1(9),4,7,12-tetraen-12-yl]acetamide]	0	0%	0.5 mm	0	3%	3	1%	0.8 mm	0.9 mm	7%	0%	658 copies per reaction	0 copies per reaction	3 copies per reaction	68 copies per reaction	4587 copies per reaction
Cc1c2c(oc(=O)c1CC(=O)NCC(O)CO)C=CC1C(C3CCCCC3)=COC21 (stereo not shown) [IIJ, 2-{5-cyclohexyl-13-methyl-11-oxo-3,10-dioxatricyclo[7.4.0.0^{2,6}]trideca-1(9),4,7,12-tetraen-12-yl)-N-(2,3-dihydroxypropyl)acetamide]	4	4%	0.7 mm	2	1%	12	2%	1.2 mm	0.9 mm	3%	2%	435 copies per reaction	1 copies per reaction	1 copies per reaction	45 copies per reaction	6541 copies per reaction
CC1CCN(C(=O)c2ccc(OC3CCN(CC(O)C(C)O)CC3)cc2)C1 (stereo not shown) [IVB, 1-(4-{4-[(3-methylpyrrolidin-1-yl)carbonyl]phenoxy}piperidin-1-yl)butane-2,3-diol]	0	0%	0.7 mm	0	3%	3	1%	1.2 mm	0.9 mm	7%	0%	432 copies per reaction	8 copies per reaction	4 copies per reaction	43 copies per reaction	3574 copies per reaction
